Two molecules from patent US20120190868A1, “SUBSTITUTED BENZOCHALCOGENOACENE COMPOUND, THIN FILM COMPRISING THE COMPOUND, AND ORGANIC SEMICONDUCTOR DEVICE INCLUDING THE THIN FILM” (NATIONAL UNIVERSITY CORPORATION NAGOYA UNIVERSITY, priority 2009, published 2012) can be followed below.

This data set can be described thus: Solubility of the compound in a solvent (preparation of solution composition). The format is physicochemical. On the procedure: The solution composition containing the compound [5] in 0.5 wt % concentration was prepared by dissolving the compound [5] manufactured in Example 1 in tetrahydrofuran.
On the substrate obtained by a similar procedure to Example 8, a 0.5 wt % dichlorobenzene solution of the compound [14] heated at 100° C. was applied by the spin coating method and dried on a hot plate of 120° C. for 30 minutes to result in the formation of a thin film containing the compound and having a thickness of about 30 nm.

As for `CCCCCCCCCCCCc1ccc2c(c1)sc1c2sc2c3ccc(CCCCCCCCCCCC)cc3sc21` [[14]], under “dichlorobenzene, heated at 100° C.”, the “concentration of solution of the compound (solubility in a solvent)” value is recorded as 0.5 wt %.
Regarding `CCCCCCc1ccc2c(c1)sc1c2sc2c3ccc(CCCCCC)cc3sc21` [[5]], the “concentration of solution composition prepared by dissolving the compound (solubility in a solvent)” value (tetrahydrofuran) came to 0.5 wt %.
